Assay results as given in patent US7541371B2, “Method for treating a motor neuron disease” (Eisai R&D Management Co., Ltd., priority 2006, dated 2009).
Each block holds one molecule with its values, some of them ahead of it.

Legend:
5-HT1A receptor [1] = molecular target: T1, 5-HT1A receptor (Sus scrofa, UniProt A0A4X1UTF5); test: Test on affinity for serotonin 1A receptor ([3H]MPPF, hippocampus membrane fraction); assay type: binding, swine; conditions: low affinity IC50 divided by high affinity IC50; not more than 1 = no intrinsic activity, not less than 2 = intrinsic activity
T1 construct: to a swine hippocampus membrane fraction; from tissue; host or cells: swine hippocampus
T1 sequence (A0A4X1UTF5 1-422): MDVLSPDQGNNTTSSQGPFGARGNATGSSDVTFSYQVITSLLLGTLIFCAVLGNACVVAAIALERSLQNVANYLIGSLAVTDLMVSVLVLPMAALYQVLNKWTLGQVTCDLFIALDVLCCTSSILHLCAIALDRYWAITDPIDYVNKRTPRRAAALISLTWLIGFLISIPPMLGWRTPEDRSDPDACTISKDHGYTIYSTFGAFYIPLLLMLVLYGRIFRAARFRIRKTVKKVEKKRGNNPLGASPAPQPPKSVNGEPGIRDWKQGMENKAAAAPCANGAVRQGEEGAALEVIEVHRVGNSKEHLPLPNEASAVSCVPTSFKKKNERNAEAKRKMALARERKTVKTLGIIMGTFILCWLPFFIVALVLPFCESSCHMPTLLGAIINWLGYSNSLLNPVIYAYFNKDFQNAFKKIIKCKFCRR
Protocol: The affinity of test compounds for the 5-HT1A receptor was determined by an experiment for inhibition of a test compound against the binding of [^3H]-4-(2′-Methoxy)phenyl-1-[2′-(N-2″-pyridinyl)-p-fluorobenzamido]ethyl-piperazine (MPPF), selectively bound to the 5-HT1A receptor, to a swine hippocampus membrane fraction. The 5-HT1A receptor, which is a G protein binding receptor, is brought to a G protein bound state upon the addition of MgCl2, and is brought to a G protein nonbound state upon the addition of guanylylimidodiphosphate (Gpp(NH)p). It is generally known that a G protein receptor agonist has stronger affinity for the G protein bound receptor depending upon the level of the intrinsic activity. Accordingly, the affinity of a test compound for the receptor in a G protein nonbound state and the affinity of the test compound for the receptor in a G protein bound state were determined and compared with each other to estimate the level of the intrinsic activity of the test compound.
The greater this value, the higher the intrinsic activity.
Swine hippocampus was homogenized in an ice-cooled 50 mM Tris hydrochloride buffer (pH 7.4; hereinafter referred to as buffer A). The suspension was centrifuged at 40,000×g for 15 min. The resultant sediment was suspended in buffer A, and the suspension was then centrifuged at 40,000×g for 15 min. The same procedure was further repeated twice or three times. The finally obtained sediment was suspended in buffer A in an amount of about ten times larger than the wet weight of the swine hippocampus to prepare a membrane fraction which was then stored at −80° C. until use.
A mixture (0.5 mL) for incubation, containing an appropriate amount of the membrane fraction, a test compound in a desired concentration, MgCl2 (final concentration: 10 mM) or Gpp(NH)p (final concentration: 1 mM), [^3H]MPPF (final concentration: 0.5 nM), dimethyl sulfoxide (final concentration: 1% (v/v)), and 50 mM Tris hydrochloride buffer (pH 7.4), was provided. Upon the addition of the membrane fraction, a reaction started, and the mixture was incubated at 37° C. for 30 min. After the incubation, the incubated mixture was suction filtered through a glass filter with a cell harvester. After washing the glass filter with ice-cooled buffer A, the radioactivity bound to the receptor was measured with a liquid scintillation counter. The binding detected in the presence of 10 μM WAY-100,635. was regarded as nonspecific binding.

rat motor neuron cells [2] = test: Inhibition of 5HT toxicity in rat motor neuron primary pure culture system; assay type: cell-based; conditions: survival three days after seeding; for Inhibition of 5HT toxicity (survival rate): antagonist added 5 to 10 min before 5HT, FIG. 2, FIG. 3
Protocol: (§1) Based on the results of cell measurement, the rat motor neuron cells were diluted with the culture solution to 1.1 to 1.2×10^4 cells/mL. Greiner 4-well dishes previously coated with poly-L-ornithine/laminin were seeded with the cell suspension at 90 μL/well with a 1 mL Pipetman. […] The initial viable cell count was measured three hr after the addition of serotonin (5HT). The viable cell count was again measured three days after the cell seeding, and the survival rate was calculated based on the initial viable cell count. The cell count measurement was carried out under a phase-contrast microscope using marks previously applied on the backside of the Greiner 4-well dish as a reference.
as §1

serotonin 2 receptor = molecular target: T2, serotonin 2 receptor (Mus musculus, UniProt P35363); test: Mouse head twitch behavior test (tryptamine-induced); assay type: in vivo; conditions: tryptamine 30 mg/kg i.v.; test compound 15 min before; FIG. 7
T2 construct: known to induce mouse head twitch behavior through a serotonin 2 receptor; from tissue; host or cells: living mouse (in vivo behaviour test)
T2 sequence (P35363 whole entry): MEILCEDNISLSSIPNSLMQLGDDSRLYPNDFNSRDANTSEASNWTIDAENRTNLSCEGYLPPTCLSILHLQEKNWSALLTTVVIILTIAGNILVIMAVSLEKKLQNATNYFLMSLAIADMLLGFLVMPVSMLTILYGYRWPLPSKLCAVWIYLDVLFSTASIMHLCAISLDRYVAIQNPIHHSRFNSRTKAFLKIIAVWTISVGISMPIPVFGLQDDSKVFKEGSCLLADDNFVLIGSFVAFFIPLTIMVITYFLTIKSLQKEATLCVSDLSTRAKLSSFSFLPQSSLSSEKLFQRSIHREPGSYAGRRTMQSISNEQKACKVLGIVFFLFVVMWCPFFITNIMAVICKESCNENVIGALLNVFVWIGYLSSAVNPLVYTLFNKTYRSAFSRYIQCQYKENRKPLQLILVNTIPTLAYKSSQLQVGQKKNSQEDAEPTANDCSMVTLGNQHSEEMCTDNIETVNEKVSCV
Protocol: The serotonin 2 receptor antagonist activity of test compounds was determined by a mouse head twitch behavior test. Tryptamine is a serotonin 2 receptor agonist and is known to induce mouse head twitch behavior through a serotonin 2 receptor. Accordingly, the serotonin 2 receptor antagonist activity of the test compounds can be evaluated based on the head twitch behavior by tryptamine. Tryptamine was administered intravenously to mice at 30 mg/kg, and the number of times of appearance of the head twitch within one min after the start of administration counted. The test compounds (compounds 1 and 4) were administered 15 min before the intravenous administration of tryptamine.
[^3H]8-hydroxy-dipropylaminotetralin is known to be used for the measurement of binding of test compounds to serotonin 1A receptors (European Journal of Pharmacology, 90, p. 151-153, 1983.). Further, [^3H]ketanserin is known to be used for the measurement of binding of test compounds to serotonin 2A receptors (Brian Dean and Wendy Hayes, Schizophrenia Research, 21, p. 133-139, 1996.). Furthermore, the test on mouse head twitch behavior with tryptamine is known to be used for the measurement of the serotonin 2 receptor antagonist activity of test compounds (Yamada J., et al., European Journal of Pharmacology, 140, p. 323-330, 1987; and Yamada J., et al., Neuropharmacology, 26, p. 49-53, 1987.).

rat motor neuron cells [3] = test: Evaluation of toxicity of 5HT in rat motor neuron primary pure culture system; assay type: cell-based
Protocol: Rat motor neuron cells were subjected to pure culture in the presence of 30 ng/mL BDNF for three days, and toxicity of serotonin (5HT) was evaluated.
The rat motor neuron primary pure culture was carried out by a method which is modification of Nishijima et al. method (Nishijima C. et al., J Neurochem 76, 383-390(2001)) by incorporating a purification method and the like in the Nishijima et al. method.
A necessary number of Greiner-4-well dishes (10 mm i.d. wells) (Greiner bio-one) were provided, and 0.15 M sodium borate buffer (pH 8.3) containing 0.5 mg/mL poly-L-ornithine was added at 100 μL/well followed by standing at 4° C. overnight. Ornithine was removed by suction, the residue was washed three times with PBS(−), and L-15 (CO2) containing 10 μg/mL laminin (Gibco-BRL) was spread at 50 μL/well. […]
Wistar pregnant rats (fifteen days pregnant) (Tokyo Laboratory Animals Science Co., Ltd.) were etherized and were then sacrificed by cervical dislocation. […] One hr after the start of the culture, serotonin (serotonin creatinine sulfate complex, Sigma) or glutamate (Sigma) was added thereto, and, three hr after that, the initial viable cell count was measured. The viable cell count was again measured three days after the cell seeding, and the survival rate was calculated based on the initial viable cell count. […]

5-HT1A receptor [4] = molecular target: T1, 5-HT1A receptor; conditions: receptor in G protein bound state (MgCl2 10 mM), 0.5 nM [3H]MPPF, swine hippocampus membrane; WO 2005/108389; read-out: High affinity; cited from earlier work

- L/H ratio (5-HT1A receptor [1]): 0.9
SMILES: COc1cc2oc(C)nc2cc1CCN1CCC(n2ccc3ccc(C(N)=O)cc32)CC1 [Compound 11, 1-{1-[2-(6-methoxy-2-methylbenzoxazol-5-yl)ethyl]piperidin-4-yl}-1H-indole-6-carboxamide]

SMILES: OC(c1ccccc1)C1CCN(CCc2ccccc2)CC1 (stereo not shown) [MDL-11939]
- Inhibition of 5HT toxicity (survival rate) (rat motor neuron cells [2]): inhibited

- L/H ratio (5-HT1A receptor [1]): 0.7
SMILES: COc1ccc2nc(C)oc2c1CCN1CCC(n2ccc3ccc(C(N)=O)cc32)CC1 [Compound 12, 1-{1-[2-(6-methoxy-2-methylbenzoxazol-7-yl)ethyl]piperidin-4-yl}-1H-indole-6-carboxamide]

- L/H ratio (5-HT1A receptor [1]): 0.9
SMILES: COc1cc2c(cc1CCN1CCC(n3ccc4ccc(C(N)=O)cc43)CC1)OCCO2 [Compound 15, 1-{1-[2-(7-methoxy-2,3-dihydrobenzo[1,4]dioxin-6-yl)ethyl]piperidin-4-yl}-1H-indole-6-carboxamide]

- L/H ratio (5-HT1A receptor [1]): 1.3
SMILES: COc1cc2onc(C)c2cc1CCN1CCC(n2ccc3ccc(C(N)=O)cc32)CC1 [Compound 13, 1-{1-[2-(6-methoxy-3-methylbenzo[d]isoxazol-5-yl)ethyl]piperidin-4-yl}-1H-indole-6-carboxamide]

SMILES: CNC(=O)Cc1ccc2ccn(C3CCN(CCc4ccccc4F)CC3)c2c1 [Compound 1, N-methyl-{1-[1-(2-fluorophenethyl)piperidin-4-yl]-1H-indol-6-yl}acetamide]
- Concentration at which 5HT excitotoxicity is inhibited (rat motor neuron cells [2]; compound added 5 to 10 min before 5HT, FIG. 5, FIG. 6): not less than 0.1 nM
- Serotonin 2A receptor antagonist activity (head twitch by tryptamine) (serotonin 2 receptor): excellent serotonin 2A receptor antagonist activity

SMILES: NCCc1c[nH]c2ccc(O)cc12 [Compound 5HT, serotonin]
- 5HT toxicity compared with glutamate toxicity (rat motor neuron cells [3]; serum-free culture solution, FIG. 1B): comparable with glutamate toxicity
- Toxicity of 5HT (survival rate of motor neuron cells) (rat motor neuron cells [3]; three days culture, 30 ng/mL BDNF, FIG. 1A): showed toxicity in a concentration-dependent manner

- L/H ratio (5-HT1A receptor [1]): 0.8
SMILES: COc1ccc2c(c1CCN1CCC(n3ccc4ccc(C(N)=O)cc43)CC1)OC(C)(C)CC2=O [Compound 10, 1-{1-[2-(7-methoxy-2,2-dimethyl-4-oxochroman-8-yl)ethyl]piperidin-4-yl}-1H-indole-6-carboxamide]
- IC50 (5-HT1A receptor [4]): 0.13 nM

- L/H ratio (5-HT1A receptor [1]): 0.8
SMILES: CNC(=O)c1ccc2ccn(C3CCN(CCc4c(OC)ccc5c4OC(C)(C)CC5=O)CC3)c2c1 [Compound 9, 1-{1-[2-(7-methoxy-2,2-dimethyl-4-oxochroman-8-yl)ethyl]piperidin-4-yl}-N-methyl-1H-indole-6-carboxamide]
- IC50 (5-HT1A receptor [4]): 0.2 nM

SMILES: COc1ccccc1N1CCN(CCCCN2C(=O)c3ccccc3C2=O)CC1 [NAN-190]
- Inhibition of 5HT toxicity (survival rate) (rat motor neuron cells [2]): inhibited

- L/H ratio (5-HT1A receptor [1]): 1.6
SMILES: COc1ccc2c(C)noc2c1CCN1CCC(n2ccc3ccc(C(N)=O)cc32)CC1 [Compound 14, 1-{1-[2-(6-methoxy-3-methylbenzo[d]isoxazol-7-yl)ethyl]piperidin-4-yl}-1H-indole-6-carboxamide]

SMILES: NCCOB(c1ccccc1)c1ccccc1 [Compound 2-APB]
- Inhibition of 5HT toxicity (survival rate) (rat motor neuron cells [2]): inhibition of 5HT excitotoxicity
